Experimental findings from patent US7173004B2, “Macrocyclic isoquinoline peptide inhibitors of hepatitis C virus” (Bristol-Myers Squibb Company, priority 2003, dated 2007) are described below.

SMILES strings stand for the structures. Structures can show the parent of a compound that is named as a salt.

The first assay concerns the target T1, HCV NS3/4A protease complex, BMS strain (genotype 1a) (UniProt P27958, C1454S/C1711G, species not given/STRAIN_BMS).
T1 construct: b1001: DNA encoding the recombinant HCV NS3/4A protease complex (amino acids 1027 to 1711) ... a three-lysine solubilizing tail was added at the 3′-end of the NS4A coding region; fused on or other part: Three-lysine solubilising tail at the C-terminus of NS4A; A His tag is implied by the pET21b vector and Ni-NTA purification
The experiment in a line: Recombinant HCV NS3/4A protease complex FRET peptide assay, BMS strain. It is filed as biochemical. The following applies: NS3/4A BMS Strain; activity range classes. The source says:
Recombinant HCV NS3/4A Protease Complex FRET Peptide Assay
The purpose of this in vitro assay was to measure the inhibition of HCV NS3 protease complexes, derived from the BMS strain, H77C strain or J416S strain, as described below, by compounds of the present invention. This assay provides an indication of how effective compounds of the present invention would be in inhibiting HCV proteolytic activity.
Serum from an HCV-infected patient was obtained from Dr. T. Wright, San Francisco Hospital. An engineered full-length cDNA (compliment deoxyribonucleic acid) template of the HCV genome (BMS strain) was constructed from DNA fragments obtained by reverse transcription-PCR (RT-PCR) of serum RNA (ribonucleic acid) and using primers selected on the basis of homology between other genotype 1a strains. From the determination of the entire genome sequence, a genotype 1a was assigned to the HCV isolate according to the classification of Simmonds et al. (See P Simmonds, K A Rose, S Graham, S W Chan, F McOmish, B C Dow, E A Follett, P L Yap and H Marsden, J. Clin. Microbiol., 31(6), 1493–1503 (1993)). […] The infectious clones, H77C (1a genotype) and J4L6S (1b genotype) were obtained from R. Purcell (NIH) and the sequences are published in Genbank (AAB67036, see Yanagi, M., Purcell, R. H., Emerson, S. U. and Bukh, J. Proc. Natl. Acad. Sci. U.S.A. 94(16), 8738–8743 (1997); AF054247, see Yanagi, M., St Claire, M., Shapiro, M., Emerson, S. U., Purcell, R. H. and Bukh, J, Virology 244 (1), 161–172. (1998)).
The H77C and J4L6S strains were used for production of recombinant NS3/4A protease complexes. DNA encoding the recombinant HCV NS3/4A protease complex (amino acids 1027 to 1711) for these strains were manipulated as described by P. Gallinari et al. (see Gallinari P, Paolini C, Brennan D, Nardi C, Steinkuhler C, De Francesco R. Biochemistry. 38(17):5620–32, (1999)). Briefly, a three-lysine solubilizing tail was added at the 3′-end of the NS4A coding region. The cysteine in the P1 position of the NS4A-NS4B cleavage site (amino acid 1711) was changed to a glycine to avoid the proteolytic cleavage of the lysine tag. Furthermore, a cysteine to serine mutation was introduced by PCR at amino acid position 1454 to prevent the autolytic cleavage in the NS3 helicase domain. The variant DNA fragment was cloned in the pET21b bacterial expression vector (Novagen) and the NS3/4A complex was expressed in Escherichia coli strain BL21 (DE3) (Invitrogen) following the protocol described by P. Gallinari et al. (see Gallinari P, Brennan D, Nardi C, Brunetti M, Tomei L, Steinkuhler C, De Francesco R., J. Virol. 72(8):6758–69 (1998)) with modifications. Briefly, NS3/4A expression was induced with 0.5 mM Isopropyl β-D-1-thiogalactopyranoside (IPTG) for 22 hr at 20° C. A typical fermentation (10 L) yielded approximately 80 g of wet cell paste. The cells were resuspended in lysis buffer (10 mL/g) consisting of 25 mM N-(2-Hydroxyethyl)piperazine-N′-(2-Ethane Sulfonic acid) (HEPES), pH7.5, 20% glycerol, 500 mM Sodium Chloride (NaCl), 0.5% Triton-X100, 1 microgram/milliliter (“μg/mL”) lysozyme, 5 mM Magnesium Chloride (MgCl2), 1 ug/ml DnaseI, 5 mM β-Mercaptoethanol (βME), Protease inhibitor—Ethylenediamine Tetraacetic acid (EDTA) free (Roche), homogenized and incubated for 20 mins at 4° C. The homogenate was sonicated and clarified by ultra-centrifugation at 235000 g for 1 hr at 4° C. Imidazole was added to the supernatant to a final concentration of 15 mM and the pH adjusted to 8.0. The crude protein extract was loaded on a Nickel-Nitrilotriacetic acid (Ni-NTA) column pre-equilibrated with buffer B (25 mM HEPES, pH8.0, 20% glycerol, 500 mM NaCl, 0.5% Triton-X100, 15 mM imidazole, 5 mM βME). The sample was loaded at a flow rate of 1 mL/min. The column was washed with 15 column volumes of buffer C (same as buffer B except with 0.2% Triton-X100). The protein was eluted with 5 column volumes of buffer D (same as buffer C except with 200 mM Imidazole). […]
`CC(C)(C)OC(=O)N[C@H]1CCCCC/C=C\[C@@H]2C[C@@]2(C(=O)O)NC(=O)[C@@H]2C[C@@H](Oc3nccc4ccccc34)CN2C1=O` [Compound 1, 14-tert-Butoxycarbonylamino-18-(isoquinolin-1-yloxy)-2,15-dioxo-3,16-diaza-tricyclo[14.3.0.0^4,6]nonadec-7-ene-4-carboxylic acid]: the IC50 lay within 50 to 500 nM.

Staying with this assay, now noted: NS3/4A BMS strain; activity range symbols.
Regarding `CC(C)(C)OC(=O)N[C@H]1CCCCC/C=C\[C@@H]2C[C@@]2(C(=O)NS(C)(=O)=O)NC(=O)[C@@H]2C[C@@H](Oc3nccc4ccccc34)CN2C1=O` [Compound 2, [18-(Isoquinolin-1-yloxy)-4-methanesulfonylaminocarbonyl-2,15-dioxo-3,16-diaza-tricyclo[14.3.0.0^4,6]nonadec-7-en-14-yl]-carbamic acid tert-butyl ester], the IC50 was less than 50 nM. As to `CC(C)S(=O)(=O)NC(=O)[C@@]12C[C@H]1/C=C\CCCCC[C@H](NC(=O)OC(C)(C)C)C(=O)N1C[C@H](Oc3nccc4ccccc34)C[C@H]1C(=O)N2` [Compound 3, [18-(Isoquinolin-1-yloxy)-2,15-dioxo-4-(propane-2-sulfonylaminocarbonyl)-3,16-diaza-tricyclo-[14.3.0.0^4,6]nonadec-7-en-14-yl]-carbamic acid tert-butyl ester], the IC50 is less than 50 nM.

In the case of `CC(C)(C)OC(=O)N[C@H]1CCCCC/C=C\[C@@H]2C[C@@]2(C(=O)NS(=O)(=O)C2CC2)NC(=O)[C@@H]2C[C@@H](Oc3nccc4ccccc34)CN2C1=O` [Compound 4, [4-Cyclopropanesulfonylaminocarbonyl-18-(isoquinolin-1-yloxy)-2,15-dioxo-3,16-diaza-tricyclo[14.3.0.0^4,6]nonadec-7-en-14-yl]-carbamic acid tert-butyl ester], the IC50 is less than 50 nM. Still for that read-out and setting: to `CC(C)(C)OC(=O)N[C@H]1CCCCC/C=C\[C@@H]2C[C@@]2(C(=O)NS(=O)(=O)C2(Cc3ccccc3)CC2)NC(=O)[C@@H]2C[C@@H](Oc3nccc4ccccc34)CN2C1=O` [Compound 5, [4-(1-Benzyl-cyclopropanesulfonylaminocarbonyl)-18-(isoquinolin-1-yloxy)-2,15-dioxo-3,16-diaza-tricyclo[14.3.0.0^4,6]nonadec-7-en-14-yl]-carbamic acid tert-butyl ester] belongs less than 50 nM. Same read-out and setting: the value for `CCCC1(S(=O)(=O)NC(=O)[C@@]23C[C@H]2/C=C\CCCCC[C@H](NC(=O)OC(C)(C)C)C(=O)N2C[C@H](Oc4nccc5ccccc45)C[C@H]2C(=O)N3)CC1` [Compound 6, [18-(Isoquinolin-1-yloxy)-2,15-dioxo-4-(1-propyl-cyclopropanesulfonylaminocarbonyl)-3,16-diaza-tricyclo[14.3.0.0^4,6]nonadec-7-en-14-yl]-carbamic acid tert-butyl ester] was less than 50 nM. The same measure, in the same setting: to `CCCC1(S(=O)(=O)NC(=O)[C@@]23C[C@H]2CCCCCCC[C@H](NC(=O)OC(C)(C)C)C(=O)N2C[C@H](Oc4nccc5ccccc45)C[C@H]2C(=O)N3)CC1` [Compound 7, [18-(Isoquinolin-1-yloxy)-2,15-dioxo-4-(1-propyl-cyclopropanesulfonylaminocarbonyl)-3,16-diaza-tricyclo[14.3.0.0^4,6]nonadec-14-yl]-carbamic acid tert-butyl ester] belongs less than 50 nM. Turning to `CC(C)(C)OC(=O)N[C@H]1CCCCC/C=C\[C@@H]2C[C@@]2(C(=O)NS(=O)(=O)C2(C)CC2)NC(=O)[C@@H]2C[C@@H](Oc3nccc4ccccc34)CN2C1=O` [Compound 8, [18-(Isoquinolin-1-yloxy)-4-(1-methyl-cyclopropanesulfonylaminocarbonyl)-2,15-dioxo-3,16-diaza-tricyclo[14.3.0.0^4,6]nonadec-7-en-14-yl]-carbamic acid tert-butyl ester], the IC50 was less than 50 nM.

For the compound `CC(C)(C)OC(=O)N[C@H]1CCCCC/C=C\[C@@H]2C[C@@]2(C(=O)NS(=O)(=O)C2CCC2)NC(=O)[C@@H]2C[C@@H](Oc3nccc4ccccc34)CN2C1=O` [Compound 9, [4-Cyclobutanesulfonylaminocarbonyl-18-(isoquinolin-1-yloxy)-2,15-dioxo-3,16-diaza-tricyclo[14.3.0.0^4,6]nonadec-7-en-14-yl]-carbamic acid tert-butyl ester], the IC50 was less than 50 nM. On the same count and under the same terms, to `CC(C)(C)OC(=O)N[C@H]1CCCCCCC[C@@H]2C[C@@]2(C(=O)NS(=O)(=O)C2CC2)NC(=O)[C@@H]2C[C@@H](Oc3nccc4ccccc34)CN2C1=O` [Compound 10, [4-Cyclopropanesulfonylaminocarbonyl-18-(isoquinolin-1-yloxy)-2,15-dioxo-3,16-diaza-tricyclo[14.3.0.0^4,6]nonadec-14-yl]-carbamic acid tert-butyl ester] belongs less than 50 nM; to `N[C@H]1CCCCC/C=C\[C@@H]2C[C@@]2(C(=O)NS(=O)(=O)C2CC2)NC(=O)[C@@H]2C[C@@H](Oc3nccc4ccccc34)CN2C1=O` [Compound 11, Cyclopropanesulfonic acid [14-amino-18-(isoquinolin-1-yloxy)-2,15-dioxo-3,16-diaza-tricyclo[14.3.0.0^4,6]nonadec-7-ene-4-carbonyl]-amide bis hydrochloride], less than 50 nM. Same read-out and setting: the value for `COC(=O)N[C@H]1CCCCC/C=C\[C@@H]2C[C@@]2(C(=O)NS(=O)(=O)C2CC2)NC(=O)[C@@H]2C[C@@H](Oc3nccc4ccccc34)CN2C1=O` [Compound 12, [4-Cyclopropanesulfonylaminocarbonyl-18-(isoquinolin-1-yloxy)-2,15-dioxo-3,16-diaza-tricyclo[14.3.0.0^4,6]nonadec-7-en-14-yl]-carbamic acid methyl ester] was less than 50 nM; that for `CC(C)(C)COC(=O)N[C@H]1CCCCC/C=C\[C@@H]2C[C@@]2(C(=O)NS(=O)(=O)C2CC2)NC(=O)[C@@H]2C[C@@H](Oc3nccc4ccccc34)CN2C1=O` [Compound 13, [4-Cyclopropanesulfonylaminocarbonyl-18-(isoquinolin-1-yloxy)-2,15-dioxo-3,16-diaza-tricyclo[14.3.0.0^4,6]nonadec-7-en-14-yl]-carbamic acid 2,2-dimethyl-propyl ester] was less than 50 nM. In the case of `O=C(N[C@H]1CCCCC/C=C\[C@@H]2C[C@@]2(C(=O)NS(=O)(=O)C2CC2)NC(=O)[C@@H]2C[C@@H](Oc3nccc4ccccc34)CN2C1=O)OC1CCOCC1` [Compound 14, [4-Cyclopropanesulfonylaminocarbonyl-18-(isoquinolin-1-yloxy)-2,15-dioxo-3,16-diaza-tricyclo[14.3.0.0^4,6]nonadec-7-en-14-yl]-carbamic acid tetrahydro-pyran-4-yl ester], the IC50 is less than 50 nM.

The assay is the same for the next values; noted with them: read-out: IC50 against the BMS strain NS3/4A protease in the enzyme assay; BMS strain.
For `CC(C)(C)OC(=O)N[C@H]1CCCCC/C=C\[C@@H]2C[C@@]2(C(=O)NS(C)(=O)=O)NC(=O)[C@@H]2C[C@@H](Oc3nccc4ccccc34)CN2C1=O` [Compound 2, [18-(Isoquinolin-1-yloxy)-4-methanesulfonylaminocarbonyl-2,15-dioxo-3,16-diaza-tricyclo[14.3.0.0^4,6]nonadec-7-en-14-yl]-carbamic acid tert-butyl ester], the IC50 worked out at 26 nM.
